Source: ChEMBL document CHEMBL1201862, “PubChem BioAssay data set” (2004)
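The compound was tested at five concentrations on cells cultured in 96-well plates, with a 48-hour exposure period. GI50: concentration for 50% inhibition of growth.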 Calls of active or inactive are those of the source. No stated cut-off is given here; in the data, active = GI50 up to about 1.1 µM and inactive = higher.

Experiments:
Assay in all cases: DTP human tumour cell line panel, 48 h
EKVX = tested on: EKVX
NCI/ADR-RES = tested on: NCI/ADR-RES
MOLT-4 = tested on: MOLT-4
HOP-92 = tested on: HOP-92
PC-3 = tested on: PC-3
SK-OV-3 = tested on: SK-OV-3
SNB-75 = tested on: SNB-75
MDA-MB-231 = tested on: MDA-MB-231
MDA-N = tested on: MDA-N
U-251 = tested on: U-251
T47D = tested on: T47D
HCT-116 = tested on: HCT-116
SK-MEL-28 = tested on: SK-MEL-28
K562 = tested on: K562
CAKI-1 = tested on: CAKI-1
NCI-H23 = tested on: NCI-H23
BT-549 = tested on: BT-549
SR = tested on: SR
SF-539 = tested on: SF-539
M19-MEL = tested on: M19-MEL

Compound	GI50 (EKVX)	GI50 (NCI/ADR-RES)	GI50 (MOLT-4)	GI50 (HOP-92)	GI50 (PC-3)	GI50 (SK-OV-3)	GI50 (SNB-75)	GI50 (MDA-MB-231)	GI50 (MDA-N)	GI50 (U-251)	GI50 (T47D)	GI50 (HCT-116)	GI50 (SK-MEL-28)	GI50 (K562)	GI50 (CAKI-1)	GI50 (NCI-H23)	GI50 (BT-549)	GI50 (SR)	GI50 (SF-539)	GI50 (M19-MEL)
N=C1N=C(N)c2cc3c(cc21)SCCSCCCSCCS3	19.9 µM (inactive)	58.1 µM (inactive)	10.2 µM (inactive)	23.1 µM (inactive)	15.1 µM (inactive)	18.5 µM (inactive)	14.8 µM (inactive)	16 µM (inactive)	15 µM (inactive)	15.1 µM (inactive)	24.8 µM (inactive)	9.59 µM (inactive)	14.6 µM (inactive)	4.71 µM (inactive)	42.4 µM (inactive)	11.3 µM (inactive)	14.1 µM (inactive)	11.1 µM (inactive)	20.1 µM (inactive)	
O=C1c2ccccc2C(=O)c2c1oc(=O)c1ccccc21	5.77 µM (inactive)	1.94 µM (inactive)	3.79 µM (inactive)	5.16 µM (inactive)	5.37 µM (inactive)	9.25 µM (inactive)	5.24 µM (inactive)	3.74 µM (inactive)	2.2 µM (inactive)	2.96 µM (inactive)	5.47 µM (inactive)	1.03 µM (active)	6.5 µM (inactive)	4 µM (inactive)	6.21 µM (inactive)	4.23 µM (inactive)	4.51 µM (inactive)	3.75 µM (inactive)	10.7 µM (inactive)	
N#Cc1c(O)c(/C=N/c2ncccn2)c(=O)n2c1[nH]c1ccccc12	> 100 µM (inactive)	> 100 µM (inactive)	> 100 µM (inactive)	> 100 µM (inactive)	> 100 µM (inactive)	> 100 µM (inactive)	44.1 µM (inactive)	> 100 µM (inactive)	> 100 µM (inactive)	> 100 µM (inactive)	> 100 µM (inactive)	> 100 µM (inactive)	> 100 µM (inactive)	> 100 µM (inactive)	> 100 µM (inactive)	> 100 µM (inactive)	> 100 µM (inactive)	> 100 µM (inactive)	> 100 µM (inactive)	
O=C1C(Cl)=C(N2CCN(c3ncccn3)CC2)C(=O)c2c(O)ccc(O)c21	11.4 µM (inactive)	3.01 µM (inactive)	0.697 µM (active)	2.37 µM (inactive)	3.1 µM (inactive)	24 µM (inactive)	9.02 µM (inactive)	2.15 µM (inactive)	1.78 µM (inactive)	3.63 µM (inactive)	2.64 µM (inactive)	1.69 µM (inactive)	2.23 µM (inactive)	1.45 µM (inactive)	2.05 µM (inactive)	2.27 µM (inactive)	2.14 µM (inactive)	0.265 µM (active)	1.97 µM (inactive)	
N=C(N)NS(=O)(=O)c1ccc(NC(=O)c2ccc3nc4ccccc4c(O)c3c2)cc1	> 100 µM (inactive)	> 100 µM (inactive)	> 100 µM (inactive)	> 100 µM (inactive)	> 100 µM (inactive)	> 100 µM (inactive)	> 100 µM (inactive)	> 100 µM (inactive)	> 100 µM (inactive)	> 100 µM (inactive)	> 100 µM (inactive)	> 100 µM (inactive)	> 100 µM (inactive)	> 100 µM (inactive)	> 100 µM (inactive)	> 100 µM (inactive)	> 100 µM (inactive)	> 100 µM (inactive)	> 100 µM (inactive)	
COc1ccc(C2=Nn3c(nc4sc5c(c4c3=O)CCCC5)SC2)cc1	> 100 µM (inactive)	> 100 µM (inactive)	> 100 µM (inactive)	> 100 µM (inactive)	> 100 µM (inactive)	> 100 µM (inactive)	> 10 µM (inactive)	> 100 µM (inactive)	> 100 µM (inactive)	> 100 µM (inactive)	> 100 µM (inactive)	> 100 µM (inactive)	> 100 µM (inactive)	> 100 µM (inactive)	> 100 µM (inactive)	> 100 µM (inactive)	> 100 µM (inactive)	> 100 µM (inactive)	> 100 µM (inactive)	
Clc1cc2nc(C3CCCCO3)[nH]c2cc1Cl (configuration not stated)	48.1 µM (inactive)	12.1 µM (inactive)	33.3 µM (inactive)	35.7 µM (inactive)	22.3 µM (inactive)	15.9 µM (inactive)	15.2 µM (inactive)	34.3 µM (inactive)	4.1 µM (inactive)	34.3 µM (inactive)	14.3 µM (inactive)	13.7 µM (inactive)	> 60.3 µM (inactive)	6.47 µM (inactive)	29.1 µM (inactive)	18 µM (inactive)	11.1 µM (inactive)	4.49 µM (inactive)	26.8 µM (inactive)	
C[Si](C)(C)C1=C([Si](C)(C)C)C(Cl)(Cl)C1=O	4.72 µM (inactive)	3.42 µM (inactive)	0.671 µM (active)	2.04 µM (inactive)	3.76 µM (inactive)	22.6 µM (inactive)	8.77 µM (inactive)	2.8 µM (inactive)	1.99 µM (inactive)	4.08 µM (inactive)	1.74 µM (inactive)	3.39 µM (inactive)	2.79 µM (inactive)	0.879 µM (active)	2.36 µM (inactive)	4.26 µM (inactive)	3.63 µM (inactive)	1.93 µM (inactive)	5.22 µM (inactive)	
CS(=O)(=O)N(CCC#N)c1ccc(/C=C2\N=C(c3ccccc3Cl)OC2=O)cc1	> 100 µM (inactive)		> 100 µM (inactive)			> 100 µM (inactive)	> 100 µM (inactive)			> 100 µM (inactive)		> 100 µM (inactive)	> 100 µM (inactive)	> 100 µM (inactive)	> 100 µM (inactive)	> 100 µM (inactive)			> 100 µM (inactive)	> 100 µM (inactive)
Clc1ccccc1-c1nc(-c2ccncc2)no1 [PIFEXOLE]	16.1 µM (inactive)	30.9 µM (inactive)	26.8 µM (inactive)	> 100 µM (inactive)	78 µM (inactive)	> 100 µM (inactive)	89.3 µM (inactive)	94.4 µM (inactive)	49.3 µM (inactive)	65.8 µM (inactive)	29.2 µM (inactive)	43.4 µM (inactive)	> 100 µM (inactive)	26.6 µM (inactive)	57.3 µM (inactive)	49.4 µM (inactive)	42.3 µM (inactive)	18.5 µM (inactive)	> 100 µM (inactive)	
O=c1ccc2[n+]([O-])c3ccc(O)cc3oc-2c1 [RESAZURIN]	28.8 µM (inactive)	13.4 µM (inactive)	13.7 µM (inactive)	> 75.2 µM (inactive)	7.23 µM (inactive)	66.5 µM (inactive)	3.45 µM (inactive)	29.6 µM (inactive)	1.84 µM (inactive)	9.68 µM (inactive)	56.4 µM (inactive)	16.7 µM (inactive)	10.2 µM (inactive)	10.5 µM (inactive)	32.5 µM (inactive)	2.56 µM (inactive)	10.7 µM (inactive)	15.3 µM (inactive)	15.9 µM (inactive)	
